Test results reported in article PMC3704662, “Synthesis, docking and acetylcholinesterase inhibitory assessment of 2-(2-(4-Benzylpiperazin-1-yl)ethyl)isoindoline-1,3-dione derivatives with potential anti-Alzheimer effects” (DARU Journal of Pharmaceutical Sciences, 2013).

Molecular target: T1, acetylcholinesterase from electric eel (AChE, E.C. 3.1.1.7, Type V-S) (Electrophorus electricus, UniProt O42275)
T1 construct: purchased Sigma-Aldrich (Steinheim, Germany) Type V-S (catalogue number not given)
Assay: biochemical
Conditions: Ellman test; IC50 ± SEM; 15 min preincubation at 25°C; pH 8.0; acetylthiocholine iodide substrate; triplicate; read-out: IC50 of in vitro acetylcholinesterase assay
Description: Lyophilized powder of acetylcholinesterase from electric eel source (AChE, E.C. 3.1.1.7, Type V-S, 1000 unit) was purchased from Sigma-Aldrich (Steinheim, Germany). 5,5’-Dithiobis-(2-nitrobenzoic acid), potassium dihydrogen phosphate, dipotassium hydrogen phosphate, potassium hydroxide, sodium hydrogen carbonate, and acetylthiocholine iodide were purchased from Fluka (Buchs, Switzerland). […] The Ellman test was carried out for assessment of the anticholinesterase activity of intended compounds in vitro. Prior to use, all solutions were adjusted to 25°C. […] The assay solution consisted of a 0.1 M potassium phosphate buffer pH 8.0, with the addition of 0.01 M 5,50-dithio-bis(2-nitrobenzoic acid), 2.5 unit/mL of enzyme solution (AChE, E.C. 3.1.1.7, Type V-S, lyophilized powder, from electric eel) (Sigma Chemical). […] After rapid and immediate mixing the change of absorption was measured at 412 nm. In order to justify non enzymatic reaction assays were carried out with a blank containing all components except AChE.
The blank reading contained 3 ml buffer, 200 μl water, 100 μl DTNB and 20 μl substrate. The reaction rates were calculated, and the percent inhibition of test compounds was determined. Each concentration was analyzed in triplicate, and IC50 values were determined graphically from inhibition curves (log inhibitor concentration vs percent of inhibition).

T1 sequence (O42275 24-633): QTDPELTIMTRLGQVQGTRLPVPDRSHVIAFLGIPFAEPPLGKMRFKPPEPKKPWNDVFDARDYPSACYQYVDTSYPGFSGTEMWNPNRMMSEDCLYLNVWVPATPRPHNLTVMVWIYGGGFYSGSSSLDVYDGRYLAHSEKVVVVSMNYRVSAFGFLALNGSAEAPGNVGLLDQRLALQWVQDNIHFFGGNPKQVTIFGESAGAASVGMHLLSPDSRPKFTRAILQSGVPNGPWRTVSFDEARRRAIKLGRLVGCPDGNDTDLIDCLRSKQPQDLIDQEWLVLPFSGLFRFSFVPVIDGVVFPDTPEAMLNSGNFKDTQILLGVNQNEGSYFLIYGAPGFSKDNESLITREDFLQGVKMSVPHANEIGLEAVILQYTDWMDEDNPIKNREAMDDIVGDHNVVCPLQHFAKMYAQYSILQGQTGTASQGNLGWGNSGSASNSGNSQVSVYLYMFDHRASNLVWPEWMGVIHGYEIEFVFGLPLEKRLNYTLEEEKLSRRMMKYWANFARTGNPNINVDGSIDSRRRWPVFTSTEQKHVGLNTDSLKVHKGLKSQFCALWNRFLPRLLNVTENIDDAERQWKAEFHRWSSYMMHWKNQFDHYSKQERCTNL

| Compound | IC50 |
| --- | --- |
| O=C1c2ccccc2C(=O)N1CCN1CCN(Cc2cccc(Cl)c2)CC1 [Compound 4b, 2-(2-(4-(3-Chlorobenzyl)piperazin-1-yl)ethyl)isoindoline-1,3-dione] | 85 ± 12 µM |
| O=C1c2ccccc2C(=O)N1CCN1CCN(Cc2ccccc2F)CC1 [Compound 4d, 2-(2-(4-(2-Fluorobenzyl)piperazin-1-yl)ethyl)isoindoline-1,3-dione] | 23 ± 7 µM |
| O=C1c2ccccc2C(=O)N1CCN1CCN(Cc2ccc(Cl)cc2)CC1 [Compound 4c, 2-(2-(4-(4-Chlorobenzyl)piperazin-1-yl)ethyl)isoindoline-1,3-dione] | 26 ± 5 µM |
| O=C1c2ccccc2C(=O)N1CCN1CCN(Cc2ccc([N+](=O)[O-])cc2)CC1 [Compound 4k, 2-(2-(4-(4-Nitrobenzyl)piperazin-1-yl)ethyl)isoindoline-1,3-dione] | 40 ± 4 µM |
| O=C1c2ccccc2C(=O)N1CCN1CCN(Cc2cccc(F)c2)CC1 [Compound 4e, 2-(2-(4-(3-Fluorobenzyl)piperazin-1-yl)ethyl)isoindoline-1,3-dione] | 74 ± 11 µM |
| COc1ccc(CN2CCN(CCN3C(=O)c4ccccc4C3=O)CC2)cc1 [Compound 4h, 2-(2-(4-(4-Methoxybenzyl)piperazin-1-yl)ethyl)isoindoline-1,3-dione] | 72 ± 9 µM |
| O=C1c2ccccc2C(=O)N1CCN1CCN(Cc2ccccc2[N+](=O)[O-])CC1 [Compound 4i, 2-(2-(4-(2-Nitrobenzyl)piperazin-1-yl)ethyl)isoindoline-1,3-dione] | 36 ± 5 µM |
| O=C1c2ccccc2C(=O)N1CCN1CCN(Cc2ccccc2Cl)CC1 [Compound 4a, 2-(2-(4-(2-Chlorobenzyl)piperazin-1-yl)ethyl)isoindoline-1,3-dione] | 0.91 ± 0.045 µM |
| O=C1c2ccccc2C(=O)N1CCN1CCN(Cc2ccc(F)cc2)CC1 [Compound 4f, 2-(2-(4-(4-Fluorobenzyl)piperazin-1-yl)ethyl)isoindoline-1,3-dione] | 42 ± 8 µM |
| O=C1c2ccccc2C(=O)N1CCN1CCN(Cc2cccc([N+](=O)[O-])c2)CC1 [Compound 4j, 2-(2-(4-(3-Nitrobenzyl)piperazin-1-yl)ethyl)isoindoline-1,3-dione] | 59 ± 6 µM |
| COc1cccc(CN2CCN(CCN3C(=O)c4ccccc4C3=O)CC2)c1 [Compound 4g, 2-(2-(4-(3-Methoxybenzyl)piperazin-1-yl)ethyl)isoindoline-1,3-dione] | 5.5 ± 0.7 µM |
| O=C1c2ccccc2C(=O)N1CCN1CCN(Cc2ccccc2)CC1 [Compound 4l, 2-(2-(4-Benzylpiperazin-1-yl)ethyl)isoindoline-1,3-dione] | 9 ± 2 µM |
